pIC50: −log10 of the molar value.
Biological target: T1, recombinant Plk1 protein (Homo sapiens, UniProt P53350)
T1 construct: histidine tag (N); made in house; host or cells: SF9 insect cells
Assay: Plk1 kinase activity inhibition assay (33P-ATP, alpha casein substrate, flash plates)
Type: biochemical
Settings: enzymatic assay, 100 nM Li-ATP, 80 minutes at 30° C.
In short: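 N-terminally His-tagged human Plk1 from SF9 cells (50–100 ng/well) phosphorylated alpha casein (500 ng/well) with 100 nM ATP including 33P-ATP at pH 7.5, with Mg2+ and Mn2+, 80 min at 30 °C. 33P incorporation read on scintillator-coated flash plates; IC50 derived.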

T1 sequence (P53350 whole entry): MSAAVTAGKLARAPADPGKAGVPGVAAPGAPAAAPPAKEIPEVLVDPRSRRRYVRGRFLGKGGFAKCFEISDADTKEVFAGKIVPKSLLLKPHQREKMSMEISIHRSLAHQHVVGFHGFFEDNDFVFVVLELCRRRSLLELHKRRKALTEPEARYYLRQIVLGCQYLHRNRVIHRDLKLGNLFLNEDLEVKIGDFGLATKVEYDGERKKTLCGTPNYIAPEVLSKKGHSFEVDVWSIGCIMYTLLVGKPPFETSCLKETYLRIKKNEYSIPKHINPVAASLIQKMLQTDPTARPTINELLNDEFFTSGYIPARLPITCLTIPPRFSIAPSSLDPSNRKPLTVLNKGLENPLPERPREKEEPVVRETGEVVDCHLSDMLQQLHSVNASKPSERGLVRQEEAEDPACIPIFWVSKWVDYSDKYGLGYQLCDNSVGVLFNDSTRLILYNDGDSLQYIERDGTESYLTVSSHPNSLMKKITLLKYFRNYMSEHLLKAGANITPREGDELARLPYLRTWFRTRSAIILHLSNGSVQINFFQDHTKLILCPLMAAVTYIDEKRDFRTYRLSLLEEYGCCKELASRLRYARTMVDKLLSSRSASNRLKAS

## C[C@@H](Oc1cc(-n2cnc3cnc(CN4CCN(C)CC4)cc32)sc1C(N)=O)c1ccccc1Cl [Example 100, 3-[(1R)-1-(2-chlorophenyl)ethoxy]-5-{6-[(4-methylpiperazin-1-yl)methyl]-1H-imidazo[4,5-c]pyridin-1-yl}thiophene-2-carboxamide]
  pIC50: > 8.00

## CC(Oc1cc(-n2cnc3cnc(CN4CCN(C)CC4)cc32)sc1C(N)=O)c1ccccc1F (centres unmarked) [Example 103, 3-[1-(2-fluorophenyl)ethoxy]-5-{6-[(4-methylpiperazin-1-yl)methyl]-1H-imidazo[4,5-c]pyridin-1-yl}thiophene-2-carboxamide]
  pIC50: 7.00 to 8.00

## C[C@@H](Oc1cc(-n2cnc3cnc(CN4CCN(CC(=O)N5CCOCC5)CC4)cc32)sc1C(N)=O)c1ccccc1C(F)(F)F [Example 124, 5-(6-{[4-(2-morpholin-4-yl-2-oxoethyl)piperazin-1-yl]methyl}-1H-imidazo[4,5-c]pyridin-1-yl)-3-{(1R)-1-[2-(trifluoromethyl)phenyl]ethoxy}thiophene-2-carboxamide]
  pIC50: 7.00 to 8.00

## CC(=O)N1CCCN(Cc2cc3c(cn2)ncn3-c2cc(O[C@H](C)c3ccccc3C(F)(F)F)c(C(N)=O)s2)CC1 [Example 81, 5-{6-[(4-acetyl-1,4-diazepan-1-yl)methyl]-1H-imidazo[4,5-c]pyridin-1-yl}-3-{(1R)-1-[2-(trifluoromethyl)phenyl]ethoxy}thiophene-2-carboxamide]
  pIC50: 7.00 to 8.00

## Cc1ccccc1C(C)Oc1cc(-n2cnc3cnc(CN4CCN(C(C)C)CC4)cc32)sc1C(N)=O (centres unmarked) [Example 149, 5-{6-[(4-isopropylpiperazin-1-yl)methyl]-1H-imidazo[4,5-c]pyridin-1-yl}-3-[1-(2-methylphenyl)ethoxy]thiophene-2-carboxamide]
  pIC50: 7.00 to 8.00

## C[C@@H](Oc1cc(-n2cnc3cc(CN4CCN(C)CC4)ncc32)sc1C(N)=O)c1ccccc1C(F)(F)F [Example 49, 5-{6-[(4-methylpiperazin-1-yl)methyl]-3H-imidazo[4,5-c]pyridin-3-yl}-3-{(1R)-1-[2-(trifluoromethyl)phenyl]ethoxy}thiophene-2-carboxamide]
  pIC50: 5.00 to 6.00

## C[C@@H](Oc1cc(-n2cnc3cnc(CN4CCC(N(C)C)CC4)cc32)sc1C(N)=O)c1ccccc1C(F)(F)F [Example 65, 5-(6-{[4-(dimethylamino)piperidin-1-yl]methyl}-1H-imidazo[4,5-c]pyridin-1-yl)-3-{(1R)-1-[2-(trifluoromethyl)phenyl]ethoxy}thiophene-2-carboxamide]
  pIC50: > 8.00

## CC(Oc1cc(-n2cnc3cnc(CO)cc32)sc1C(N)=O)c1ccc(C#N)cc1Cl (centres unmarked) [Example 123, 3-[1-(2-chloro-4-cyanophenyl)ethoxy]-5-[6-(hydroxymethyl)-1H-imidazo[4,5-c]pyridin-1-yl]thiophene-2-carboxamide]
  pIC50: > 8.00

## NC(=O)c1sc(-n2cnc3cnccc32)cc1OCc1ccccc1OC(F)F [Example 42, 3-{[2-(difluoromethoxy)benzyl]oxy}-5-(1H-imidazo[4,5-c]pyridin-1-yl)thiophene-2-carboxamide]
  pIC50: > 8.00

## CCC(Oc1cc(-n2cnc3cnc(CN4CCN(CC)CC4)cc32)sc1C(N)=O)c1ccccc1Cl (centres unmarked) [Example 142]
  pIC50: > 8.00

## COCCNC(=O)c1cc2c(cn1)ncn2-c1cc(OCc2ccccc2C(F)(F)F)c(C(N)=O)s1 [Example 4, 1-(5-Carbamoyl-4-{[2-(trifluoromethyl)benzyl]oxy}-2-thienyl)-N-(2-methoxyethyl)-1H-imidazo[4,5-c]pyridine-6-carboxamide]
  pIC50: 6.00 to 7.00

## C[C@@H](Oc1cc(-n2cnc3cnc(CN4CCN(CCN(C)C)CC4)cc32)sc1C(N)=O)c1ccccc1Cl [Example 132, 3-[(1R)-1-(2-chlorophenyl)ethoxy]-5-[6-({4-[2-(dimethylamino)ethyl]piperazin-1-yl}methyl)-1H-imidazo[4,5-c]pyridin-1-yl]thiophene-2-carboxamide]
  pIC50: 7.00 to 8.00

## COCCN1CCN(Cc2cc3ncn(-c4cc(OC(C)c5ccccc5F)c(C(N)=O)s4)c3cn2)CC1 (centres unmarked) [Example 157, 3-[-1-(2-fluorophenyl)ethoxy]-5-(6-{[4-(2-methoxyethyl)piperazin-1-yl]methyl}-3H-imidazo[4,5-c]pyridin-3-yl)thiophene-2-carboxamide]
  pIC50: 6.00 to 7.00

## C[C@@H](Oc1cc(-n2cnc3cnc(CN4CCC(O)CC4)cc32)sc1C(N)=O)c1ccccc1C(F)(F)F [Example 64, 5-{6-[(4-hydroxypiperidin-1-yl)methyl]-1H-imidazo[4,5-c]pyridin-1-yl}-3-{(1R)-1-[2-(trifluoromethyl)phenyl]ethoxy}thiophene-2-carboxamide]
  pIC50: > 8.00

## C[C@@H](Oc1cc(-n2cnc3cnc(CN4CCC(N5CCN(C)CC5)CC4)cc32)sc1C(N)=O)c1ccccc1C(F)(F)F [Example 89, 5-(6-{[4-(4-methylpiperazin-1-yl)piperidin-1-yl]methyl}-1H-imidazo[4,5-c]pyridin-1-yl)-3-{(1R)-1-[2-(trifluoromethyl)phenyl]ethoxy}thiophene-2-carboxamide]
  pIC50: 7.00 to 8.00

## CC(Oc1cc(-n2cnc3cc(CNC4CCN(C)CC4)ncc32)sc1C(N)=O)c1ccccc1F (centres unmarked) [Example 156, 3-[-1-(2-fluorophenyl)ethoxy]-5-(6-{[(1-methylpiperidin-4-yl)amino]methyl}-3H-imidazo[4,5-c]pyridin-3-yl)thiophene-2-carboxamide]
  pIC50: 5.00 to 6.00

## C[C@@H](Oc1cc(-n2cnc3cnc(CO)cc32)sc1C(N)=O)c1ccccc1C(F)(F)F [Example 25, 5-[6-(hydroxymethyl)-1H-imidazo[4,5-c]pyridin-1-yl]-3-{(1R)-1-[2-(trifluoromethyl)phenyl]ethoxy}thiophene-2-carboxamide]
  pIC50: > 8.00

## COc1cc2ncn(-c3cc(OCc4ccccc4C(F)(F)F)c(C(N)=O)s3)c2nc1OC [Example 21B, 5-(5,6-Dimethoxy-3H-imidazo[4,5-b]pyridin-3-yl)-3-{[2-(trifluoromethyl)benzyl]oxy}thiophene-2-carboxamide]
  pIC50: 7.00 to 8.00

## CN1CCN(Cc2cc3c(cn2)ncn3-c2cc(OCc3ccccc3C(F)(F)F)c(C(N)=O)s2)CC1 [Example 8, 5-{6-[(4-Methylpiperazin-1-yl)methyl]1H-imidazo[4,5-c]pyridin-1-yl}-3-{[2-(trifluoromethyl)benzyl]oxy}thiophene-2-carboxamide]
  pIC50: > 8.00

## C[C@@H](Oc1cc(-n2cnc3cnc(CN4CCN(CCN(C)C)CC4)cc32)sc1C(N)=O)c1ccccc1F [Example 136, 5-[6-({4-[2-(dimethylamino)ethyl]piperazin-1-yl}methyl)-1H-imidazo[4,5-c]pyridin-1-yl]-3-[(1R)-1-(2-fluorophenyl)ethoxy]thiophene-2-carboxamide]
  pIC50: 6.00 to 7.00

## CC(Oc1cc(-n2cnc3cc(CO)ncc32)sc1C(N)=O)c1ccccc1Cl (centres unmarked) [Example 125, 3-[-1-(2-chlorophenyl)ethoxy]-5-[6-(hydroxymethyl)-3H-imidazo[4,5-c]pyridin-3-yl]thiophene-2-carboxamide]
  pIC50: > 8.00

## CC(Oc1cc(-n2cnc3cnc(CO)cc32)sc1C(N)=O)c1ccccc1F (centres unmarked) [Example 57]
  pIC50: > 8.00

## C[C@@H](Oc1cc(-n2cnc3cnc(CNC4CCC4)cc32)sc1C(N)=O)c1ccccc1C(F)(F)F [Example 105, 5-{6-[(cyclobutylamino)methyl]-1H-imidazo[4,5-c]pyridin-1-yl}-3-{(1R)-1-[2-(trifluoromethyl)phenyl]ethoxy}thiophene-2-carboxamide]
  pIC50: 7.00 to 8.00

## C[C@@H](Oc1cc(-n2cnc3cnc(CN4CCNCC4)cc32)sc1C(N)=O)c1ccccc1C(F)(F)F [Example 92]
  pIC50: > 8.00

## CC(Oc1cc(-n2cnc3cnc(CO)cc32)sc1C(N)=O)c1ccccc1OC(F)F (centres unmarked) [Example 53]
  pIC50: > 8.00

## CCC(Oc1cc(-n2cnc3cnc(CN4CCN(C)CC4)cc32)sc1C(N)=O)c1ccccc1Cl (centres unmarked) [Example 102, 3-{[1-(2-chlorophenyl)propyl]oxy}-5-{6-[(4-methylpiperazin-1-yl)methyl]-1H-imidazo[4,5-c]pyridin-1-yl}thiophene-2-carboxamide]
  pIC50: 7.00 to 8.00

## NC(=O)c1sc(-n2cnc3cnc(CO)cc32)cc1OCc1ccccc1C(F)(F)F [Example 9, 5-[6-(Hydroxymethyl)-1H-imidazo[4,5-c]pyridin-1-yl]-3-{[2-(trifluoromethyl)benzyl]oxy}thiophene-2-carboxamide]
  pIC50: 7.00 to 8.00

## CC(Oc1cc(-n2cnc3ccncc32)sc1C(N)=O)c1ccccc1Cl (centres unmarked) [Example 12, 3-[1-(2-Chlorophenyl)ethoxy]-5-(3H-imidazo[4,5-c]pyridin-3-yl)thio-phene-2-carboxamide]
  pIC50: > 8.00

## CC(Oc1cc(-n2cnc3cnccc32)sc1C(N)=O)c1ccccc1Cl (centres unmarked) [Example 15, 3-[1-(2-Chlorophenyl)ethoxy]-5-(1H-imidazo[4,5-c]pyridin-1-yl)thio-phene-2-carboxamide]
  pIC50: 7.00 to 8.00

## CC(C)CN1CCN(Cc2cc3c(cn2)ncn3-c2cc(O[C@H](C)c3ccccc3C(F)(F)F)c(C(N)=O)s2)CC1 [Example 120, 5-{6-[(4-isobutylpiperazin-1-yl)methyl]-1H-imidazo[4,5-c]pyridin-1-yl}-3-{(1R)-1-[2-(trifluoromethyl)phenyl]ethoxy}thiophene-2-carboxamide]
  pIC50: > 8.00

## C[C@@H](Oc1cc(-n2cnc3cnc(CN4CCN(c5ccncc5)CC4)cc32)sc1C(N)=O)c1ccccc1C(F)(F)F [Example 75, 5-{6-[(4-pyridin-4-ylpiperazin-1-yl)methyl]-1H-imidazo[4,5-c]pyridin-1-yl}-3-{(1R)-1-[2-(trifluoromethyl)phenyl]ethoxy}thiophene-2-carboxamide]
  pIC50: 7.00 to 8.00

## C[C@@H](Oc1cc(-n2cnc3cnc(CN4CCCN(C)CC4)cc32)sc1C(N)=O)c1ccccc1Cl [Example 129, 3-[(1R)-1-(2-chlorophenyl)ethoxy]-5-{6-[(4-methyl-1,4-diazepan-1-yl)methyl]-1H-imidazo[4,5-c]pyridin-1-yl}thiophene-2-carboxamide]
  pIC50: > 8.00

Reference: patent US8273890B2 (4SC AG, priority 2007, dated 2012)
